Measurements as given in patent US9833497B2, “Human originated EGF domain proteins and use of the same” (CHENGDU SOURCEBIO LIMITED-LIABILITY COMPANY, priority 2013, dated 2017).

Key:
Type in all cases: cell-based
Proteus mirabilis = test: MIC against Gram-negative bacteria: Proteus mirabilis; conditions: for MIC P. mirabilis: two-fold serial dilution; for MIC against P. mirabilis: Proteus mirabilis
In short: (§1)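 LB broth cultures at McFarland 0.5, spun down, resuspended, diluted to 5×10^5 CFU/mL final. Two-fold serial dilutions of purified human EGF domain proteins, triplicate. 37° C, 175 rpm shaking. Endpoint: no visible growth.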

Proteus vulgaris = test: MIC against Gram-negative bacteria: Proteus vulgaris; conditions: for MIC P. vulgaris: two-fold serial dilution; for MIC against P. vulgaris: Proteus vulgaris
In short: as §1

Klebsiella pneumonia = test: MIC against Gram-negative bacteria: Klebsiella pneumonia; conditions: for MIC K. pneumonia: two-fold serial dilution; for MIC against K. pneumonia: Klebsiella pneumonia
In short: as §1

Moraxella catarrhalis = test: MIC against Gram-negative bacteria: Moraxella catarrhalis; conditions: for MIC M. catarrhalis: two-fold serial dilution; for MIC against M. catarrhalis: Moraxella catarrhalis
In short: as §1

Citrobacter diversus = test: MIC against Gram-negative bacteria: Citrobacter diversus; conditions: for MIC C. diversus: two-fold serial dilution; for MIC against C. diversus: Citrobacter diversus
In short: as §1

Enterobacter cloacae = test: MIC against Gram-negative bacteria: Enterobacter cloacae; conditions: for MIC E. cloacae: two-fold serial dilution; for MIC against E. cloacae: Enterobacter cloacae
In short: as §1

Serratia marcescens = test: MIC against Gram-negative bacteria: Serratia marcescens; conditions: for MIC S. marcescens: two-fold serial dilution; for MIC against S. marcescens: Serratia marcescens
In short: as §1

E. coli DH5α = test: Antibacterial activity: MIC and growth curve against E. coli DH5α in 96-well plate; conditions: minimal inhibitory concentration against E. coli DH5α; 96-well plate, 5×10^5 CFU/mL, 37° C., judged after 8 h
In short: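 Log-phase DH5α (OD600 about 0.5, 37° C, 185 rpm in LB) was pelleted, resuspended in fresh LB and seeded at 5×10^5 CFU/mL with recombinant protein at 50, 25 and 12.5 μg/mL (two-fold series), in triplicate. Plates were shaken at 175 rpm, 37° C, and OD600 was read every 30 min. MIC was the lowest concentration with no growth.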

E. coli BL21 = test: MIC against Gram-negative bacteria: E. coli BL21; conditions: for MIC E. coli BL21: two-fold serial dilution
In short: as §1

Aeromonas hydrophila = test: MIC against Gram-negative bacteria: Aeromonas hydrophila; conditions: for MIC A. hydrophila: two-fold serial dilution; for MIC against A. hydrophila: Aeromonas hydrophila
In short: as §1

Pseudomonas aeruginosa = test: MIC against Gram-negative bacteria: Pseudomonas aeruginosa; conditions: for MIC P. aeruginosa: two-fold serial dilution; for MIC against P. aeruginosa: Pseudomonas aeruginosa
In short: as §1

[1] = 10 h cultivation at 37° C., 5×10^5 CFU/mL
[2] = 5×10^5 CFU/mL, 10 h cultivation at 37° C.
[3] = E. coli BL21, 5×10^5 CFU/mL, 10 h cultivation at 37° C.
[4] = 96-well plate, 5×10^5 CFU/mL, 37° C., 10 h

PRT1058 (DIDECQLGEHSCGENASCTNTEGGYTCMCAGRLSEPGLICP; listed as Homo sapiens)
MIC P. mirabilis (Proteus mirabilis; [1]): 12.5 µg/mL | MIC P. vulgaris (Proteus vulgaris; [1]): 50 µg/mL | MIC K. pneumonia (Klebsiella pneumonia; [1]): 25 µg/mL | MIC M. catarrhalis (Moraxella catarrhalis; [1]): 50 µg/mL | MIC C. diversus (Citrobacter diversus; [1]): 12.5 µg/mL | MIC E. cloacae (Enterobacter cloacae; [1]): 12.5 µg/mL | MIC S. marcescens (Serratia marcescens; [1]): 12.5 µg/mL | MIC (E. coli DH5α): 12.5 µg/mL | MIC E. coli BL21 (E. coli BL21; [1]): 25 µg/mL | MIC A. hydrophila (Aeromonas hydrophila; [1]): 50 µg/mL | MIC P. aeruginosa (Pseudomonas aeruginosa; [1]): 50 µg/mL

PRT775 (SSLKCPDACNAQHKQCLIKKSGGAPECACVPGYQEDANGNCQ; listed as Homo sapiens)
MIC (μg/mL) P. mirabilis (Proteus mirabilis; P. mirabilis, 10 h cultivation at 37° C., 5×10^5 CFU/mL): 50 µg/mL | MIC (μg/mL) P. vulgaris (Proteus vulgaris; P. vulgaris, 10 h cultivation at 37° C., 5×10^5 CFU/mL): 12.5 µg/mL | MIC (μg/mL) K. pneumonia (Klebsiella pneumonia; K. pneumonia, 10 h cultivation at 37° C., 5×10^5 CFU/mL): 12.5 µg/mL | MIC (μg/mL) M. catarrhalis (Moraxella catarrhalis; M. catarrhalis, 10 h cultivation at 37° C., 5×10^5 CFU/mL): 12.5 µg/mL | MIC (μg/mL) C. diversus (Citrobacter diversus; C. diversus, 10 h cultivation at 37° C., 5×10^5 CFU/mL): 50 µg/mL | MIC (μg/mL) E. cloacae (Enterobacter cloacae; E. cloacae, 10 h cultivation at 37° C., 5×10^5 CFU/mL): 50 µg/mL | MIC (μg/mL) S. marcescens (Serratia marcescens; S. marcescens, 10 h cultivation at 37° C., 5×10^5 CFU/mL): 50 µg/mL | MIC (E. coli DH5α): 12.5 µg/mL | MIC (μg/mL) E. coli BL21 (E. coli BL21; E. coli BL21, 10 h cultivation at 37° C., 5×10^5 CFU/mL): 25 µg/mL | MIC (μg/mL) A. hydrophila (Aeromonas hydrophila; A. hydrophila, 10 h cultivation at 37° C., 5×10^5 CFU/mL): 12.5 µg/mL | MIC (μg/mL) P. aeruginosa (Pseudomonas aeruginosa; P. aeruginosa, 10 h cultivation at 37° C., 5×10^5 CFU/mL): 50 µg/mL

PRT963 (QVDECRSQPCRHGGKCLDLVDKYLCRCPSGTTGVNCE; listed as Homo sapiens)
MIC (Proteus mirabilis; P. mirabilis, 10 h cultivation at 37° C.): 50 µg/mL | MIC (Proteus vulgaris; P. vulgaris, 10 h cultivation at 37° C.): 25 µg/mL | MIC (Klebsiella pneumonia; K. pneumonia, 10 h cultivation at 37° C.): 12.5 µg/mL | MIC (Moraxella catarrhalis; M. catarrhalis, 10 h cultivation at 37° C.): 12.5 µg/mL | MIC (Citrobacter diversus; C. diversus, 10 h cultivation at 37° C.): 25 µg/mL | MIC (Enterobacter cloacae; E. cloacae, 10 h cultivation at 37° C.): 25 µg/mL | MIC (Serratia marcescens; S. marcescens, 10 h cultivation at 37° C.): 25 µg/mL | MIC (E. coli DH5α): 25 µg/mL | MIC (E. coli BL21; E. coli BL21, 10 h cultivation at 37° C.): 50 µg/mL | MIC (Aeromonas hydrophila; A. hydrophila, 10 h cultivation at 37° C.): 50 µg/mL | MIC (Pseudomonas aeruginosa; P. aeruginosa, 10 h cultivation at 37° C.): 25 µg/mL

PRT1053 (QLVSCPRNVSECSHDCVLTSEGPLCFCPEGSVLERDGKTCS; listed as Homo sapiens)
MIC P. mirabilis (Proteus mirabilis; [1]): 100 µg/mL | MIC P. vulgaris (Proteus vulgaris; [1]): 12.5 µg/mL | MIC K. pneumonia (Klebsiella pneumonia; [1]): 50 µg/mL | MIC M. catarrhalis (Moraxella catarrhalis; [1]): 12.5 µg/mL | MIC C. diversus (Citrobacter diversus; [1]): 12.5 µg/mL | MIC E. cloacae (Enterobacter cloacae; [1]): 12.5 µg/mL | MIC S. marcescens (Serratia marcescens; [1]): 100 µg/mL | MIC (E. coli DH5α): 12.5 µg/mL | MIC E. coli BL21 (E. coli BL21; [1]): 12.5 µg/mL | MIC A. hydrophila (Aeromonas hydrophila; [1]): 50 µg/mL | MIC P. aeruginosa (Pseudomonas aeruginosa; [1]): 12.5 µg/mL

PRT1407 (LKTMCPDQCSGHGTYLQESGSCTCDPNWTGPDCS; listed as Homo sapiens)
MIC against P. mirabilis (Proteus mirabilis; [2]): 12.5 µg/mL | MIC against P. vulgaris (Proteus vulgaris; [2]): 12.5 µg/mL | MIC against K. pneumonia (Klebsiella pneumonia; [2]): 12.5 µg/mL | MIC against M. catarrhalis (Moraxella catarrhalis; [2]): 50 µg/mL | MIC against C. diversus (Citrobacter diversus; [2]): 12.5 µg/mL | MIC against E. cloacae (Enterobacter cloacae; [2]): 12.5 µg/mL | MIC against S. marcescens (Serratia marcescens; [2]): 25 µg/mL | MIC (E. coli DH5α): 50 µg/mL | MIC against E. coli BL21 (E. coli BL21; [3]): 25 µg/mL | MIC against A. hydrophila (Aeromonas hydrophila; [2]): 50 µg/mL | MIC against P. aeruginosa (Pseudomonas aeruginosa; [2]): 12.5 µg/mL

PRT1257 (CMNKDHGCAHICRETPKGGVACDCRPGFDLAQNQKDC; listed as Homo sapiens)
MIC against P. mirabilis (Proteus mirabilis; [4]): 50 µg/mL | MIC against P. vulgaris (Proteus vulgaris; [4]): 12.5 µg/mL | MIC against K. pneumonia (Klebsiella pneumonia; [4]): 12.5 µg/mL | MIC against M. catarrhalis (Moraxella catarrhalis; [4]): 12.5 µg/mL | MIC against C. diversus (Citrobacter diversus; [4]): 50 µg/mL | MIC against E. cloacae (Enterobacter cloacae; [4]): 25 µg/mL | MIC against S. marcescens (Serratia marcescens; [4]): 50 µg/mL | MIC (E. coli DH5α): 12.5 µg/mL | MIC against E. coli BL21 (E. coli BL21; E. coli BL21, 96-well plate, 5×10^5 CFU/mL, 37° C., 10 h): 50 µg/mL | MIC against A. hydrophila (Aeromonas hydrophila; [4]): 25 µg/mL | MIC against P. aeruginosa (Pseudomonas aeruginosa; [4]): 25 µg/mL

PRT1358 (SQLACPSDCNDQGKCVNGVCICFEGYAGADCS; listed as Homo sapiens)
MIC against P. mirabilis (Proteus mirabilis; [2]): 12.5 µg/mL | MIC against P. vulgaris (Proteus vulgaris; [2]): 25 µg/mL | MIC against K. pneumonia (Klebsiella pneumonia; [2]): 12.5 µg/mL | MIC against M. catarrhalis (Moraxella catarrhalis; [2]): 25 µg/mL | MIC against C. diversus (Citrobacter diversus; [2]): 12.5 µg/mL | MIC against E. cloacae (Enterobacter cloacae; [2]): 12.5 µg/mL | MIC against S. marcescens (Serratia marcescens; [2]): 12.5 µg/mL | MIC (E. coli DH5α): 50 µg/mL | MIC against E. coli BL21 (E. coli BL21; [3]): 12.5 µg/mL | MIC against A. hydrophila (Aeromonas hydrophila; [2]): 25 µg/mL | MIC against P. aeruginosa (Pseudomonas aeruginosa; [2]): 50 µg/mL
